Laboratory results from patent EP0908457B1, “3-(1,2-benzisothiazol- and isoxazol-5-Y1)-2,4(1H,3H)-pyrimidinedione or thione and 3-(1,2-benzisothiazol- and isoxazol-5-y1)-4(3H)-pyrimidinone or thione herbicidal agents” (BASF AKTIENGESELLSCHAFT, priority 1997, dated 1999).

Tests used:
[1] = test system: Echinochloa oryzoides (Ard.) Fritsch.; test: Postemergence weed control under flooded paddy conditions, ECHORC (Watergrass (Calif.)); type: in vivo; conditions: rated three to four weeks after treatment
[2] = test system: Monochoria vaginalis, Presl.; test: Preemergence weed control under flooded paddy conditions, MOOVA (Monochoria); type: in vivo; conditions: preemergence, flooded paddy, rated three to four weeks after treatment; also: meaning of each grade not given here
[3] = test system: Echinochloa oryzoides (Ard.) Fritsch.; test: Preemergence weed control under flooded paddy conditions, ECHORC (Watergrass (Calif.)); type: in vivo; conditions: preemergence, flooded paddy, rated three to four weeks after treatment; also: meaning of each grade not given here
[4] = test system: Cyperus iria; test: Postemergence weed control under flooded paddy conditions, CYPIR (Rice Flatsedge); type: in vivo; conditions: rated three to four weeks after treatment
[5] = test system: Cyperus serotinus, Rottb.; test: Preemergence weed control under flooded paddy conditions, CYPSE (Flatsedge); type: in vivo; conditions: preemergence, rated three to four weeks after treatment; also: meaning of each grade not given here
[6] = test system: Monochoria vaginalis, Presl.; test: Postemergence weed control under flooded paddy conditions, MOOVA (Monochoria); type: in vivo; conditions: rated three to four weeks after treatment
[7] = test system: Cyperus serotinus, Rottb.; test: Postemergence weed control under flooded paddy conditions, CYPSE (Flatsedge); type: in vivo; conditions: rated three to four weeks after treatment
[8] = test system: Oryza sativa, (L.) Tebonnet; test: Rice tolerance to post-transplant applications under flooded paddy conditions (Example 188), ORYSAT (Rice, Tebonnet); conditions: rated three to four weeks after treatment
[9] = test system: Sagittaria pygmaea, L.; test: Postemergence weed control under flooded paddy conditions, SAGPY (Arrowhead (Pygmaea)); type: in vivo; conditions: rated three to four weeks after treatment
[10] = test system: Sagittaria pygmaea, L.; test: Preemergence weed control under flooded paddy conditions, SAGPY (Arrowhead (Pygmaea)); type: in vivo; conditions: preemergence, flooded paddy, rated three to four weeks after treatment; also: meaning of each grade not given here
[11] = test system: Cyperus iria; test: Preemergence weed control under flooded paddy conditions, CYPIR (Rice Flatsedge); type: in vivo; conditions: preemergence, flooded paddy, rated three to four weeks after treatment; also: meaning of each grade not given here
[12] = test system: Oryza sativa, (L.) Tebonnet; test: Rice tolerance to post-transplant applications under flooded paddy conditions (Example 187), ORYSAT (Rice, Tebonnet); conditions: rated three to four weeks after treatment

COC(=O)C(C)Oc1cc(C)c(C)cc1-c1nsc2ccc(-n3c(=O)cc(C(F)(F)F)n(C)c3=O)cc12 (stereo not drawn) [Example 13, Methyl 2-{{6-{5-[3,6-dihydro-3-methyl-4-(trifluoromethyl)-2,6-dioxo-1(2H)-pyrimidinyl]-1,2-benzisothiazol-3-yl}-3,4-xylyl}oxy}propionate]
herbicidal effect rating, ECHORC ([1]; Rate 0.0313 kg/ha): 0.0
herbicidal effect rating, ECHORC ([1]; Rate 0.0625 kg/ha): 2.0
herbicidal effect rating, ECHORC ([1]; Rate 0.1250 kg/ha): 6.0
herbicidal effect rating, ECHORC ([1]; Rate 0.2500 kg/ha): 8.0
herbicidal effect rating, ECHORC ([1]; Rate 0.5000 kg/ha): 9.0
herbicidal effect rating, MOOVA ([2]; 0.0313 kg/ha): 9.0
herbicidal effect rating, MOOVA ([2]; 0.0625 kg/ha): 9.0
herbicidal effect rating, MOOVA ([2]; 0.1250 kg/ha): 9.0
herbicidal effect rating, MOOVA ([2]; 0.2500 kg/ha): 9.0
herbicidal effect rating, MOOVA ([2]; 0.5000 kg/ha): 9.0
herbicidal effect rating, ECHORC ([3]; 0.0313 kg/ha): 9.0
herbicidal effect rating, ECHORC ([3]; 0.0625 kg/ha): 9.0
herbicidal effect rating, ECHORC ([3]; 0.1250 kg/ha): 9.0
herbicidal effect rating, ECHORC ([3]; 0.2500 kg/ha): 9.0
herbicidal effect rating, ECHORC ([3]; 0.5000 kg/ha): 9.0
herbicidal effect rating, CYPIR ([4]; Rate 0.0313 kg/ha): 9.0
herbicidal effect rating, CYPIR ([4]; Rate 0.0625 kg/ha): 9.0
herbicidal effect rating, CYPIR ([4]; Rate 0.1250 kg/ha): 9.0
herbicidal effect rating, CYPIR ([4]; Rate 0.2500 kg/ha): 9.0
herbicidal effect rating, CYPIR ([4]; Rate 0.5000 kg/ha): 9.0
herbicidal effect rating, CYPSE ([5]; 0.0313 kg/ha): 0.0
herbicidal effect rating, CYPSE ([5]; 0.0625 kg/ha): 2.0
herbicidal effect rating, CYPSE ([5]; 0.1250 kg/ha): 7.0
herbicidal effect rating, CYPSE ([5]; 0.2500 kg/ha): 7.0
herbicidal effect rating, CYPSE ([5]; 0.5000 kg/ha): 7.0
herbicidal effect rating, MOOVA ([6]; Rate 0.0313 kg/ha): 9.0
herbicidal effect rating, MOOVA ([6]; Rate 0.0625 kg/ha): 9.0
herbicidal effect rating, MOOVA ([6]; Rate 0.1250 kg/ha): 9.0
herbicidal effect rating, MOOVA ([6]; Rate 0.2500 kg/ha): 9.0
herbicidal effect rating, MOOVA ([6]; Rate 0.5000 kg/ha): 9.0
herbicidal effect rating, CYPSE ([7]; Rate 0.0313 kg/ha): 0.0
herbicidal effect rating, CYPSE ([7]; Rate 0.0625 kg/ha): 0.0
herbicidal effect rating, CYPSE ([7]; Rate 0.1250 kg/ha): 2.0
herbicidal effect rating, CYPSE ([7]; Rate 0.2500 kg/ha): 4.0
herbicidal effect rating, CYPSE ([7]; Rate 0.5000 kg/ha): 2.0
herbicidal effect rating, ORYSAT (rice tolerance) ([8]; Rate 0.0313 kg/ha): 2.0
herbicidal effect rating, ORYSAT (rice tolerance) ([8]; Rate 0.0625 kg/ha): 2.0
herbicidal effect rating, ORYSAT (rice tolerance) ([8]; Rate 0.1250 kg/ha): 4.0
herbicidal effect rating, ORYSAT (rice tolerance) ([8]; Rate 0.2500 kg/ha): 4.0
herbicidal effect rating, ORYSAT (rice tolerance) ([8]; Rate 0.5000 kg/ha): 7.0
herbicidal effect rating, SAGPY ([9]; Rate 0.0313 kg/ha): 0.0
herbicidal effect rating, SAGPY ([9]; Rate 0.0625 kg/ha): 0.0
herbicidal effect rating, SAGPY ([9]; Rate 0.1250 kg/ha): 2.0
herbicidal effect rating, SAGPY ([9]; Rate 0.2500 kg/ha): 2.0
herbicidal effect rating, SAGPY ([9]; Rate 0.5000 kg/ha): 9.0
herbicidal effect rating, SAGPY ([10]; 0.0313 kg/ha): 0.0
herbicidal effect rating, SAGPY ([10]; 0.0625 kg/ha): 2.0
herbicidal effect rating, SAGPY ([10]; 0.1250 kg/ha): 6.0
herbicidal effect rating, SAGPY ([10]; 0.2500 kg/ha): 8.0
herbicidal effect rating, SAGPY ([10]; 0.5000 kg/ha): 9.0
herbicidal effect rating, CYPIR ([11]; 0.0313 kg/ha): 9.0
herbicidal effect rating, CYPIR ([11]; 0.0625 kg/ha): 9.0
herbicidal effect rating, CYPIR ([11]; 0.1250 kg/ha): 9.0
herbicidal effect rating, CYPIR ([11]; 0.2500 kg/ha): 9.0
herbicidal effect rating, CYPIR ([11]; 0.5000 kg/ha): 9.0
herbicidal effect rating, ORYSAT (rice tolerance) ([12]; 0.0313 kg/ha): 4.0
herbicidal effect rating, ORYSAT (rice tolerance) ([12]; 0.0625 kg/ha): 6.0
herbicidal effect rating, ORYSAT (rice tolerance) ([12]; 0.1250 kg/ha): 7.0
herbicidal effect rating, ORYSAT (rice tolerance) ([12]; 0.2500 kg/ha): 7.0
herbicidal effect rating, ORYSAT (rice tolerance) ([12]; 0.5000 kg/ha): 9.0
